# Data published in ChEMBL document CHEMBL4418299, “Compounds useful as csf1 modulators” (2016).
# Target: Macrophage colony-stimulating factor 1 receptor (Homo sapiens, UniProt P07333)
# Assay: Displacement of kinase tracer 236 from recombinant human His-tagged CSF1R cytoplasmic domain (538 to 910 residues) expressed in baculovirus-infected insect cells measured after 5 hrs by TR-FRET based LanthaScreen assay
# Macrophage colony-stimulating factor 1 receptor, sequence (P07333 whole entry, the tested form may be a part): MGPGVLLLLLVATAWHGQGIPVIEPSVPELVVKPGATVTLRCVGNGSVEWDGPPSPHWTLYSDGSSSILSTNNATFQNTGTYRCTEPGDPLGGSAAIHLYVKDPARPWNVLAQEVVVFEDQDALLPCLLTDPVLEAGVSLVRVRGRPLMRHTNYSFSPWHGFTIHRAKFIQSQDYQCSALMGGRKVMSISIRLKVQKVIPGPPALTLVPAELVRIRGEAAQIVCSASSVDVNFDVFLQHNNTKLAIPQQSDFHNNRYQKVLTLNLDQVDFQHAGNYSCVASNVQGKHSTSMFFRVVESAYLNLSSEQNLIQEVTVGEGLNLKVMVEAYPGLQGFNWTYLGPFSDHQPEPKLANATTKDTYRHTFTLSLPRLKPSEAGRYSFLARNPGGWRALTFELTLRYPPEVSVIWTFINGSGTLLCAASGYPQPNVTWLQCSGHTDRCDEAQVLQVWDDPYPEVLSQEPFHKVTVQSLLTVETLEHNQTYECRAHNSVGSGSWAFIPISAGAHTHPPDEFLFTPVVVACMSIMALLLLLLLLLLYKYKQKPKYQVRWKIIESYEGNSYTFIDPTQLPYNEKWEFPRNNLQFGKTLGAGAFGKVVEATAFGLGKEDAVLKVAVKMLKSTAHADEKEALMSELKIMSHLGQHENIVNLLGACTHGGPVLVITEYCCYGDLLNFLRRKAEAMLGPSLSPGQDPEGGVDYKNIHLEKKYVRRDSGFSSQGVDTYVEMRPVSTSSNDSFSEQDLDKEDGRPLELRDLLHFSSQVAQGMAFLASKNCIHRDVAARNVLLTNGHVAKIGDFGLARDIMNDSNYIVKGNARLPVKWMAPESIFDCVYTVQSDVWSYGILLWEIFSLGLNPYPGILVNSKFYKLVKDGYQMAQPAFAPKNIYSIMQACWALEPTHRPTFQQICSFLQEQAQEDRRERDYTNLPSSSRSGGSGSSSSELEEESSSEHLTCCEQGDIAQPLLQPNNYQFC
row,SMILES,IC50 [nM]
1,Nc1ncnc2c3c(n(-c4ccc(NC(=O)Cn5cc(C(F)(F)F)cn5)cc4)c12)CCC3,< 10
2,COc1cc(-n2c3c(c4ncnc(N)c42)CCC3)ccc1NC(=O)Cn1cc(C(F)(F)F)nc1C,10 to 200
3,COc1ccc(CC(=O)Nc2ccc(-n3c4c(c5ncnc(N)c53)COC4)cc2OC)cc1F,10 to 200
4,Nc1ncnc2c3c(n(-c4ccc(NC(=O)Cc5cc(C(F)(F)F)ccc5Cl)cc4)c12)CCC3,10 to 200
5,CC(C)c1ccn(CC(=O)Nc2ccc(-n3c4c(c5ncnc(N)c53)CCC4)cc2)n1,< 10
6,COc1cc(-n2c3c(c4ncnc(N)c42)CCC3)ccc1NC(=O)Cc1nc(C(C)C)no1,< 10
7,Nc1ncnc2c3c(n(-c4ccc(NC(=O)Cc5ccc(O)cc5)cc4)c12)CCC3,29
8,Nc1ncnc2c3c(n(-c4ccc(NC(=O)Cn5ccc(C(F)(F)F)n5)cc4)c12)CCC3,< 10
9,COc1cc(-n2c3c(c4ncnc(N)c42)CCC3)ccc1NC(=O)Cc1ccc(C(F)(F)F)nc1,< 10
10,COc1cc(-n2c3c(c4ncnc(N)c42)COC3)ccc1NC(=O)Cc1ccc(OC)c(C(F)(F)F)c1,< 10
11,Nc1ncnc2c3c(n(-c4ccc(NC(=O)Cc5coc(-c6ccccc6)n5)cc4)c12)CCC3,10 to 200
12,COc1cc(CC(=O)Nc2ccc(-n3c4c(c5ncnc(N)c53)CCC4)cc2OC)ccc1C,< 10
13,Cn1cc(CCC(=O)Nc2ccc(-n3c4c(c5ncnc(N)c53)CCC4)cc2)c2ccccc21,10 to 200
14,COc1cc(-n2c3c(c4ncnc(N)c42)CCC3)ccc1NC(=O)Cn1ccc(C(F)(F)F)n1,< 10
15,Nc1ncnc2c3c(n(-c4ccc(NC(=O)Cc5c(F)cc(Cl)cc5F)cc4)c12)CCC3,10 to 200
16,Cn1nc(C(F)(F)F)cc1CC(=O)Nc1ccc(-n2c3c(c4ncnc(N)c42)CCC3)cc1,< 10
17,COc1cc(-n2c3c(c4ncnc(N)c42)CCC3)ccc1CC(=O)Nc1ccc2c(c1)COC2(C)C,< 10
18,COc1cc(-n2c3c(c4ncnc(N)c42)COC3)ccc1NC(=O)Cn1cc(C(C)(C)C)cn1,10 to 200
19,CC(C)(C)c1cnn(CC(=O)Nc2ccc(-n3c4c(c5ncnc(N)c53)COC4)cc2)c1,< 10
20,COc1ccccc1CC(=O)Nc1ccc(-n2c3c(c4ncnc(N)c42)CCC3)cc1,< 10
21,COc1cc(-n2c3c(c4ncnc(N)c42)COC3)ccc1NC(=O)CN1C(=O)COc2ccccc21,> 200
22,COc1cc(-n2c3c(c4ncnc(N)c42)CCC3)ccc1NC(=O)Cc1cc(C(F)(F)F)no1,< 10
23,Nc1ncnc2c3c(n(-c4ccc(NC(=O)Cn5ccnc5)cc4)c12)CCC3,> 200

row,SMILES,IC50 [nM]
1,COc1cc(-n2c3c(c4ncnc(N)c42)COC3)ccc1NC(=O)Cc1csc(C(C)C)n1,10 to 200
2,COc1cc(-n2c3c(c4ncnc(N)c42)COC3)ccc1NC(=O)Cn1ccc(C(C)(C)C)n1,10 to 200
3,COc1cc(-n2c3c(c4ncnc(N)c42)CCC3)ccc1NC(=O)Cc1cc(C(F)(F)F)on1,< 10
4,Nc1ncnc2c3c(n(-c4ccc(NC(=O)Cc5nnc(C(F)(F)F)o5)cc4)c12)CCC3,> 200
5,Cn1ccc2cc(CC(=O)Nc3ccc(-n4c5c(c6ncnc(N)c64)CCC5)cc3)cnc21,< 10
6,N#Cc1ccc(CC(=O)Nc2ccc(-n3c4c(c5ncnc(N)c53)CCC4)cc2)cc1,< 10
7,Nc1ncnc2c3c(n(-c4ccc(NC(=O)Cc5ccccc5)nc4)c12)CCC3,> 200
8,Nc1ncnc2c3c(n(-c4ccc(NC(=O)Cc5cc(C(F)F)on5)cc4)c12)CCC3,10 to 200
9,COc1cc(-n2c3c(c4ncnc(N)c42)CCC3)ccc1CC(=O)Nc1ccc(C(C)(C)C)cc1,< 10
10,Nc1ncnc2c3c(n(-c4ccc(NC(=O)Cc5ccn(C(F)F)n5)cc4)c12)CCC3,10 to 200
11,Nc1ncnc2c3c(n(-c4ccc(NC(=O)Cc5ccccc5)c(Cl)c4)c12)CCC3,> 200
12,COc1cc(-n2c3c(c4ncnc(N)c42)CCC3)ccc1CC(=O)Nc1ccc(C(C)(C)OC)nc1,< 10
13,COc1ccc(CC(=O)Nc2ccc(-n3c4c(c5ncnc(N)c53)COC4)cc2OC)c(F)c1,10 to 200
14,COc1cc(-n2c3c(c4ncnc(N)c42)CCC3)ccc1NC(=O)Cn1cc(C)cn1,< 10
15,Nc1ncnc2c3c(n(-c4ccc(NC(=O)Cc5ccc6c(c5)OCO6)cc4)c12)CCC3,10 to 200
16,COc1cc(-n2c3c(c4ncnc(N)c42)CCC3)ccc1CC(=O)Nc1nc(C(F)(F)F)cs1,< 10
17,Nc1ncnc2c3c(n(-c4ccc(NC(=O)Cc5ccc(C(F)(F)F)nn5)cc4)c12)COC3,10 to 200
18,COc1cc(-n2c3c(c4ncnc(N)c42)CCC3)ccc1NC(=O)Cc1ccn(C)n1,> 200
19,Nc1ncnc2c3c(n(-c4ccc(NC(=O)Cn5ccc(C(F)(F)F)n5)cc4)c12)COC3,10 to 200
20,COc1cc(-n2c3c(c4ncnc(N)c42)COC3)ccc1NC(=O)Cn1nc(C)cc1C(F)(F)F,> 200
21,COc1cc(-n2c3c(c4ncnc(N)c42)COC3)ccc1NC(=O)Cc1ccc(C)c(F)c1,< 10
22,COc1cc(-n2c3c(c4ncnc(N)c42)COC3)ccc1NC(=O)Cc1ccc(C(F)(F)F)nc1,10 to 200
23,COc1cc(-n2c3c(c4ncnc(N)c42)COC3)ccc1NC(=O)Cc1cc(C)ccc1F,10 to 200

row,SMILES,IC50 [nM]
1,COc1cc(-n2c3c(c4ncnc(N)c42)CCC3)ccc1NC(=O)Cc1coc(-c2ccccc2)n1,10 to 200
2,Nc1ncnc2c3c(n(-c4ccc(NC(=O)Cn5cc(C(F)(F)F)cn5)cc4)c12)COC3,10 to 200
3,COc1cc(-n2c3c(c4ncnc(N)c42)COC3)ccc1NC(=O)Cn1cnc(C(F)(F)F)c1,10 to 200
4,CN1CCN(CC(=O)Nc2ccc(-n3c4c(c5ncnc(N)c53)CCC4)cc2)CC1,> 200
5,COc1cc(-n2c3c(c4ncnc(N)c42)COC3)ccc1NC(=O)Cc1cnc2c(ccn2C)c1,32
6,COc1cc(-n2c3c(c4ncnc(N)c42)COC3)ccc1NC(=O)Cn1cc(C(F)(F)F)cn1,10 to 200
7,Nc1ncnc2c3c(n(-c4ccc(NC(=O)Cc5cc(C(F)(F)F)on5)cc4)c12)CCC3,< 10
8,NC(=O)c1ccc(CC(=O)Nc2ccc(-n3c4c(c5ncnc(N)c53)CCC4)cc2)cc1C(F)(F)F,10 to 200
9,CC(=O)N1CCC(CC(=O)Nc2ccc(-n3c4c(c5ncnc(N)c53)CCC4)cc2)CC1,> 200
10,COc1cc(-n2c3c(c4ncnc(N)c42)COC3)ccc1NC(=O)Cc1cc(C(F)(F)F)on1,10 to 200
11,COc1cc(-n2c3c(c4ncnc(N)c42)COC3)ccc1NC(=O)Cc1ccnc(C(F)(F)F)c1,50
12,Nc1ncnc2c3c(n(-c4ccc(NC(=O)Cc5cnn(-c6ccccc6)c5)cc4)c12)CCC3,10 to 200
13,COc1cc(-n2c3c(c4ncnc(N)c42)CCC3)ccc1CC(=O)Nc1ccc2nonc2c1,< 10
14,COc1cc(-n2c3c(c4ncnc(N)c42)CCC3)ccc1CC(=O)N1CCOc2ccccc21,< 10
15,COc1cc(CC(=O)Nc2ccc(-n3c4c(c5ncnc(N)c53)CCC4)cc2OC)cc(OC)c1,< 10
16,COc1cc(-n2c3c(c4ncnc(N)c42)CCC3)ccc1NC(=O)Cc1ccc(C(=O)N(C)C)cc1,10 to 200
17,CNC(=O)c1cccc(NC(=O)Cc2ccc(-n3c4c(c5ncnc(N)c53)CCC4)cc2OC)c1,10 to 200
18,COc1cc(-n2c3c(c4ncnc(N)c42)CCC3)ccc1CC(=O)Nc1ccc(C2(O)COC2)cc1,10 to 200
19,COc1cc(-n2c3c(c4ncnc(N)c42)CCC3)ccc1NC(=O)Cc1ccc2c(c1)CN(C)C2=O,> 200
20,Nc1ncnc2c3c(n(-c4ccc(NC(=O)CC5CCN(C(=O)OCc6ccccc6)CC5)cc4)c12)CCC3,10 to 200
21,COc1cc(-n2c3c(c4ncnc(N)c42)CCC3)ccc1CC(=O)Nc1cc(C)ccc1F,< 10
22,Nc1ncnc2c3c(n(-c4ccc(NC(=O)Cc5cc(C(F)(F)F)no5)cc4)c12)CCC3,< 10
23,Nc1ncnc2c3c(n(-c4ccc(NC(=O)[C@@H](N)c5ccccc5)cc4)c12)CCC3,> 200

row,SMILES,IC50 [nM]
1,Nc1ncnc2c3c(n(-c4ccc(NC(=O)Cc5cnn(C(F)F)c5)cc4)c12)CCC3,10 to 200
2,COc1cc(-n2c3c(c4ncnc(N)c42)CCC3)ccc1NC(=O)Cc1csc(C(C)C)n1,< 10
3,COc1cc(-n2c3c(c4ncnc(N)c42)CCC3)ccc1NC(=O)Cc1cnccn1,> 200
4,Nc1ncnc2c3c(n(-c4ccc(NC(=O)Cc5ccc(Cl)c(C(F)(F)F)c5)cc4)c12)CCC3,14
5,COc1cc(-n2c3c(c4ncnc(N)c42)COC3)ccc1NC(=O)Cc1csc(C(C)(C)C)n1,10 to 200
6,COc1cc(-n2c3c(c4ncnc(N)c42)CCC3)ccc1NC(=O)Cc1c(C)noc1C,> 200
7,Nc1ncnc2c3c(n(-c4ccc(CC(=O)NCc5ccccc5)cc4)c12)CCC3,10 to 200
8,COc1ccc(NC(=O)Cc2ccc(-n3c4c(c5ncnc(N)c53)CCC4)cc2)nn1,> 200
9,COc1cccc(CC(=O)Nc2ccc(-n3c4c(c5ncnc(N)c53)CCC4)cc2)n1,10 to 200
10,COc1ncc(NC(=O)Cc2ccc(-n3c4c(c5ncnc(N)c53)CCC4)cc2)cc1F,< 10
11,COc1cc(-n2c3c(c4ncnc(N)c42)CCC3)ccc1NC(=O)Cn1cc(C(F)(F)F)cn1,< 10
12,COc1cc(-n2c3c(c4ncnc(N)c42)CCC3)ccc1CC(=O)Nc1cnn(C(F)F)c1,10 to 200
13,Nc1ncnc2c3c(n(-c4ccc(CC(=O)Nc5cnc(C(F)(F)F)nc5)cc4)c12)CCC3,10 to 200
14,COc1cc(-n2c3c(c4ncnc(N)c42)COC3)ccc1CC(=O)Nc1ccccc1,> 200
15,Nc1ncnc2c3c(n(-c4ccc(NC(=O)Cc5ccccc5)cc4)c12)COC3,< 10
16,COc1cc(-n2c3c(c4ncnc(N)c42)COC3)ccc1NC(=O)Cc1ccc(Cl)c(C(F)(F)F)c1,< 10
17,COc1cc(-n2c3c(c4ncnc(N)c42)CCC3)ccc1NC(=O)Cc1cnc2c(ccn2C)c1,< 10
18,COc1cc(-n2c3c(c4ncnc(N)c42)CCC3)ccc1NC(=O)Cn1nc(C)cc1C,10 to 200
19,Nc1ncnc2c3c(n(-c4ccc(NC(=O)CCc5ccccc5)cc4)c12)CCC3,10 to 200
20,Nc1ncnc2c3c(n(-c4ccc(NC(=O)Cc5cc(C(F)(F)F)ccc5F)c(C(F)(F)F)c4)c12)CCC3,> 200
21,COc1cc(-n2c3c(c4ncnc(N)c42)CCC3)ccc1NC(=O)Cc1ccc(C(F)(F)F)nn1,9
22,COc1cc(-n2c3c(c4ncnc(N)c42)CCC3)ccc1NC(=O)Cc1nnn(C(C)(C)C)n1,< 10
